Measured values published in ChEMBL document CHEMBL5505970 (J Med Chem, 2024).

Assays:
[1] = biological target: Serine/threonine-protein kinase ATR (Homo sapiens, UniProt Q13535); assay: Inhibition of ATR in human HeLa S3 cells assessed as decrease in CHK1 phosphorylation at Ser345 residue pretreated for 20 mins followed by gemcitabine stimulation for 3.5 to 4 hrs by AlphaScreen SurFire assay; format: cell-based
[2] = Oral bioavailability in cynomolgus monkey at 1 mg/kg formulated as suspension in 10% propylene glycol:18% PEG400 in water measured for 24 hrs by reverse phase liquid chromatography coupled to mass spectrometry; format: ADME, organism-based, Macaca fascicularis; settings: in vivo
[3] = Toxicity in BALB/c mouse assessed as reduction in total viable cell counts in femur at 10 mg/kg, po qd for 3 days; format: organism-based; settings: in vivo, 72 h, time 3 day
[4] = Toxicity in BALB/c mouse assessed as morphological changes in myeloid lineage cells in bone marrow at 10 mg/kg, po qd for 3 days; format: organism-based; settings: in vivo, 72 h, time 3 day
[5] = Toxicity in BALB/c mouse assessed as late stage erythroblasts in bone marrow at 10 mg/kg, po qd for 3 days and measured at 4 days after treatment discontinuation by flow cytometry; format: organism-based; settings: in vivo, 72 h, time 3 day
[6] = Toxicity in NOD-SCID mouse xenografted with human Granta-519 cells assessed as late stage erythroblasts in bone marrow at 10 mg/kg, po qd for 3 days and measured at 2 days after treatment cessation by flow cytometry; format: organism-based; settings: in vivo, 72 h, time 3 day

Chain of Serine/threonine-protein kinase ATR (Q13535 whole entry): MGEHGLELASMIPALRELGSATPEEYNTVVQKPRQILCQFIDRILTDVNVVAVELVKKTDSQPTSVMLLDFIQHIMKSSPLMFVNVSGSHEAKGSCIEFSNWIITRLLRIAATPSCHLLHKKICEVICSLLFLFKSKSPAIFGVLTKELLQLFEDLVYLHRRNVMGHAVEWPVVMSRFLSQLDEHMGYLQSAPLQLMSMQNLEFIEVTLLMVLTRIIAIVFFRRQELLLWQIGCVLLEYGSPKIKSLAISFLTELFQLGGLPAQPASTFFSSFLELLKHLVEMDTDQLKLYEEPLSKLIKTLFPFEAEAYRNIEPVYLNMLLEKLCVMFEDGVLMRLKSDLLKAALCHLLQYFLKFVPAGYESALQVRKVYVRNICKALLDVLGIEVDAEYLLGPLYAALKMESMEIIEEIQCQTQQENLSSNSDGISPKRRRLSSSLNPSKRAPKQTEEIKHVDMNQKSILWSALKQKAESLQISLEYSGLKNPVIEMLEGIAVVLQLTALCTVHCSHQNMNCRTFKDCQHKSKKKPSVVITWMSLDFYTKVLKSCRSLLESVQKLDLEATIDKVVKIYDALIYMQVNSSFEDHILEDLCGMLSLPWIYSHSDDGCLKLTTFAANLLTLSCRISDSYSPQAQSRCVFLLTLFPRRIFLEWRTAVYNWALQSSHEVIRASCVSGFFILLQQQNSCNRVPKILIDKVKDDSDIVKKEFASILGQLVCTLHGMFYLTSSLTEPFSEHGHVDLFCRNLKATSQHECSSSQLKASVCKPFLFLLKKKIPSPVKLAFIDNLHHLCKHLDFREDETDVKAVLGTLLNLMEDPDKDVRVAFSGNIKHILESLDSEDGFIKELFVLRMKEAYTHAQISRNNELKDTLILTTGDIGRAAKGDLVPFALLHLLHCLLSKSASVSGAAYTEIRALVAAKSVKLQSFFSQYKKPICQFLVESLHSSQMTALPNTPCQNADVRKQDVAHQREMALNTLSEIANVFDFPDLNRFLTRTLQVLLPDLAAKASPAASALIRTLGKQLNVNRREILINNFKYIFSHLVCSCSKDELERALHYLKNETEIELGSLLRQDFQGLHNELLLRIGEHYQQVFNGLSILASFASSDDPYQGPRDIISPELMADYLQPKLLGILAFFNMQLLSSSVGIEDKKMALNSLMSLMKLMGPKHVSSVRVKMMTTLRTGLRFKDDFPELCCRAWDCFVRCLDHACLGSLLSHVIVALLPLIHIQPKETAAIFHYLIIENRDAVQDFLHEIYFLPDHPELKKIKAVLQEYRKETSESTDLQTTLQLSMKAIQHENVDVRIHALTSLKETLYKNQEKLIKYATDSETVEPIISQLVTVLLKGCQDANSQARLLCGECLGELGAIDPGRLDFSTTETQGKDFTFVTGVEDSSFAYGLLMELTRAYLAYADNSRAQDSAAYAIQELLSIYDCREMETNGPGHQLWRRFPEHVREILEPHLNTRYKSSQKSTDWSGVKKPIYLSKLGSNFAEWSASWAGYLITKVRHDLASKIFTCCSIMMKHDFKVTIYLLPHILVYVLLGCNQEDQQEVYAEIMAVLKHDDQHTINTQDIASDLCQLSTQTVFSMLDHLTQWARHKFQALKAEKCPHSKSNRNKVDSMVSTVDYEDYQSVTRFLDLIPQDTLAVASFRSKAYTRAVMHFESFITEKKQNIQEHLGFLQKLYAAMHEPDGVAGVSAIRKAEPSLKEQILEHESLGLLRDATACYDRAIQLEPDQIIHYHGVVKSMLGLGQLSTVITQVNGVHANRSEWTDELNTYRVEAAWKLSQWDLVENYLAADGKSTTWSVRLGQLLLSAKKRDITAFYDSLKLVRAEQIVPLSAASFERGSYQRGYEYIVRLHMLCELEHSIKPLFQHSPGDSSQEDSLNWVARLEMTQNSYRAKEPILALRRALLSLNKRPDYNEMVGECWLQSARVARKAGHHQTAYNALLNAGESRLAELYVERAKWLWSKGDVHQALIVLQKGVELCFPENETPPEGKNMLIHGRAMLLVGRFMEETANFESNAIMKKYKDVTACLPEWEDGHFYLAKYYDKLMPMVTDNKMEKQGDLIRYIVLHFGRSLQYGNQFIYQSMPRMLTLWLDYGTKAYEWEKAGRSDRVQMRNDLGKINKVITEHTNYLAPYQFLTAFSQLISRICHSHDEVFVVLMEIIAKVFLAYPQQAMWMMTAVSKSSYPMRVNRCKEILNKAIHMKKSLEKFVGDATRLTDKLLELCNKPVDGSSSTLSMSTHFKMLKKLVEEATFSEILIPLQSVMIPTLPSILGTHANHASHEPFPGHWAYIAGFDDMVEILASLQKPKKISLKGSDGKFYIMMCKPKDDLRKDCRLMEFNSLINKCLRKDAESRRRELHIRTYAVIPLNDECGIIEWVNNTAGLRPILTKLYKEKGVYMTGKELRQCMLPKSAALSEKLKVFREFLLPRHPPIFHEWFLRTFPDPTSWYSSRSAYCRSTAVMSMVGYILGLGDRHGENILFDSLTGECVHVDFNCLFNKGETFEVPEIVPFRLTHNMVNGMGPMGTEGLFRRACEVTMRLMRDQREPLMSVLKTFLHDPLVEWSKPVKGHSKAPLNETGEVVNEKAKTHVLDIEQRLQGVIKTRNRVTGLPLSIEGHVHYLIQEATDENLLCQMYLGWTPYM

With `C[C@@H]1COCCN1c1cc([C@]2(O)C[C@H]3CC[C@@H](C2)O3)c2cnn(-c3cc[nH]n3)c2n1` [CAMONSERTIB] the IC50 [1] was 0.9 nM, the bioavailability [2] was 56% and the Activity [3] was “Toxic”. The Activity [4] was “Non-Toxic”, the Activity [5] was “Non-Toxic” and the Activity [6] was “Non-Toxic”.
